Species: Rattus norvegicus
Assay: Open TG-GATES - Regimen: Single
Type: toxicity, organism-based, Sprague-Dawley
Parameters: regimen Single, gender Male, age 6 weeks
Details: in vivo, po, 100 mg/kg, route gavage, dose level High; for APTT / Bas / Eos / Fbg / Hb / Ht / Lym / MCH / MCHC / MCV / Mono / Neu / PT / Plat / RBC / Ret / WBC: tissue Blood; for A/G / ALP / ALT / AST / BUN / CRE / Ca / Cl / DBIL / GLC / IP / K / LDH / Na / PL / RALB / TBIL / TC / TG / TP / gamma-GTP: tissue Plasma

Compound `Cn1cc[nH]c1=S` [METHIMAZOLE] has a TERMINAL_BW (3 h) of 213.6 g, an APTT (3 h) of 21.9 s and a Bas (3 h) of 0%. It also gave an Eos (3 h) of 1.2%, a Fbg (3 h) of 315 mg/dL and a Hb (3 h) of 13.9 g/dL. For the same compound, the Ht (3 h) was 39.4%, the Lym (3 h) was 74% and the MCH (3 h) was 21.8 pg. For the same compound, the MCHC (3 h) was 35.2%, the MCV (3 h) was 61.9 fL and the Mono (3 h) was 2%. The Neu (3 h) was 23%, the PT (3 h) was 15.4 s and the Plat (3 h) was 121.9 x10_4/uL. The RBC (3 h) was 636.8 x10_4/ul, the Ret (3 h) was 8.7% and the WBC (3 h) was 50 x10_2/uL. It also gave an A/G (3 h) of 1.2, an ALP (3 h) of 1490.2 IU/L and an ALT (3 h) of 55 IU/L. For the same compound, the AST (3 h) was 72.8 IU/L, the BUN (3 h) was 11.8 mg/dL and the CRE (3 h) was 0.1 mg/dL. The Ca (3 h) was 10.6 mg/dL, the Cl (3 h) was 102.8 meq/L and the DBIL (3 h) was 0.002 mg/dL. For the same compound, the GLC (3 h) was 191.2 mg/dL, the IP (3 h) was 9.7 mg/dL and the K (3 h) was 4.2 meq/L. It also gave an LDH (3 h) of 351.4 IU/L, a Na (3 h) of 140 meq/L and a PL (3 h) of 153.6 mg/dL. It also gave an RALB (3 h) of 3 g/dL, a TBIL (3 h) of 0.008 mg/dL and a TC (3 h) of 89.2 mg/dL. It also gave a TG (3 h) of 62.8 mg/dL, a TP (3 h) of 5.6 g/dL and a gamma-GTP (3 h) of 1 IU/L. It also gave a TERMINAL_BW (6 h) of 210.2 g, an APTT (6 h) of 22.6 s and a Bas (6 h) of 0%. It also gave an Eos (6 h) of 0.8%, a Fbg (6 h) of 306.6 mg/dL and a Hb (6 h) of 14.1 g/dL. For the same compound, the Ht (6 h) was 40.5%, the Lym (6 h) was 72.4% and the MCH (6 h) was 21.4 pg. The MCHC (6 h) was 34.7%, the MCV (6 h) was 61.7 fL and the Mono (6 h) was 3%. The Neu (6 h) was 23%, the PT (6 h) was 16 s and the Plat (6 h) was 117.2 x10_4/uL. For the same compound, the RBC (6 h) was 657.2 x10_4/ul, the Ret (6 h) was 7.8% and the WBC (6 h) was 83.4 x10_2/uL. It also gave an A/G (6 h) of 1.1, an ALP (6 h) of 1474.2 IU/L and an ALT (6 h) of 46.2 IU/L. For the same compound, the AST (6 h) was 66.8 IU/L, the BUN (6 h) was 10 mg/dL and the CRE (6 h) was 0.1 mg/dL. For the same compound, the Ca (6 h) was 10.5 mg/dL, the Cl (6 h) was 104.4 meq/L and the DBIL (6 h) was 0.002 mg/dL. For the same compound, the GLC (6 h) was 193 mg/dL, the IP (6 h) was 9.1 mg/dL and the K (6 h) was 4.2 meq/L. For the same compound, the LDH (6 h) was 344.8 IU/L, the Na (6 h) was 140.2 meq/L and the PL (6 h) was 136.6 mg/dL. For the same compound, the RALB (6 h) was 2.9 g/dL, the TBIL (6 h) was 0.014 mg/dL and the TC (6 h) was 80.2 mg/dL. For the same compound, the TG (6 h) was 52.4 mg/dL, the TP (6 h) was 5.5 g/dL and the gamma-GTP (6 h) was 1.2 IU/L. For the same compound, the TERMINAL_BW (9 h) was 206.1 g, the APTT (9 h) was 21.2 s and the Bas (9 h) was 0%. The Eos (9 h) was 1%, the Fbg (9 h) was 319.2 mg/dL and the Hb (9 h) was 13.8 g/dL. For the same compound, the Ht (9 h) was 39%, the Lym (9 h) was 71.4% and the MCH (9 h) was 21.8 pg. It also gave an MCHC (9 h) of 35.3%, an MCV (9 h) of 61.7 fL and a Mono (9 h) of 2.8%. The Neu (9 h) was 23.4%, the PT (9 h) was 16.5 s and the Plat (9 h) was 134.8 x10_4/uL. The RBC (9 h) was 631.2 x10_4/ul, the Ret (9 h) was 8.1% and the WBC (9 h) was 88.6 x10_2/uL. It also gave an A/G (9 h) of 1.2, an ALP (9 h) of 1403 IU/L and an ALT (9 h) of 47 IU/L. For the same compound, the AST (9 h) was 69.8 IU/L, the BUN (9 h) was 12.6 mg/dL and the CRE (9 h) was 0.1 mg/dL. The Ca (9 h) was 10.4 mg/dL, the Cl (9 h) was 105.6 meq/L and the DBIL (9 h) was 0.004 mg/dL. For the same compound, the GLC (9 h) was 195.2 mg/dL, the IP (9 h) was 8.6 mg/dL and the K (9 h) was 4.2 meq/L. It also gave an LDH (9 h) of 309.6 IU/L, a Na (9 h) of 140.6 meq/L and a PL (9 h) of 144.4 mg/dL. For the same compound, the RALB (9 h) was 2.9 g/dL, the TBIL (9 h) was 0.014 mg/dL and the TC (9 h) was 78.6 mg/dL. For the same compound, the TG (9 h) was 71.6 mg/dL, the TP (9 h) was 5.5 g/dL and the gamma-GTP (9 h) was 1 IU/L. For the same compound, the TERMINAL_BW (24 h) was 209.2 g, the APTT (24 h) was 20.8 s and the Bas (24 h) was 0%. For the same compound, the Eos (24 h) was 1.2%, the Fbg (24 h) was 303.8 mg/dL and the Hb (24 h) was 14.1 g/dL. For the same compound, the Ht (24 h) was 40%, the Lym (24 h) was 76.8% and the MCH (24 h) was 21.6 pg. It also gave an MCHC (24 h) of 35.3%, an MCV (24 h) of 61.1 fL and a Mono (24 h) of 2.4%. The Neu (24 h) was 18.8%, the PT (24 h) was 16.5 s and the Plat (24 h) was 125.7 x10_4/uL. The RBC (24 h) was 655.6 x10_4/ul, the Ret (24 h) was 7.6% and the WBC (24 h) was 63.5 x10_2/uL. The A/G (24 h) was 1.2, the ALP (24 h) was 1903.8 IU/L and the ALT (24 h) was 44.2 IU/L. The AST (24 h) was 55.6 IU/L, the BUN (24 h) was 12.6 mg/dL and the CRE (24 h) was 0.1 mg/dL. It also gave a Ca (24 h) of 10.9 mg/dL, a Cl (24 h) of 106.4 meq/L and a DBIL (24 h) of 0.004 mg/dL. The GLC (24 h) was 170 mg/dL, the IP (24 h) was 7.2 mg/dL and the K (24 h) was 4.3 meq/L. It also gave an LDH (24 h) of 263 IU/L, a Na (24 h) of 142 meq/L and a PL (24 h) of 159.8 mg/dL. The RALB (24 h) was 2.9 g/dL, the TBIL (24 h) was 0.016 mg/dL and the TC (24 h) was 84.6 mg/dL. It also gave a TG (24 h) of 129.6 mg/dL, a TP (24 h) of 5.4 g/dL and a gamma-GTP (24 h) of 1 IU/L.

— ChEMBL document CHEMBL3885861, “Open TG-GATES”
